Results as given in ChEMBL document CHEMBL4304741, “Modification and Biological Evaluation of a Series of 1,5-Diaryl-1,2,4-triazole Compounds as Novel Agents against Pancreatic Cancer Metastasis through Targeting Myoferlin” (J Med Chem, 2019).
pIC50, pKd: −log10 of the molar value. Active and inactive are the calls of the source. The rule behind the calls is not given here.

Tests used:
[1] = Toxicity in Balb/c nude mouse xenografted with PANC1 cells assessed as pathological changes in spleen at 25 to 50 mg/kg/day, ip by H and E staining-based microscopic analysis; assay type: organism-based; conditions: in vivo
MCF-10A = test: Cytotoxicity against human MCF10A cells assessed as reduction in cell viability measured after 48 hrs by MTS assay; assay type: cell-based
Cytochrome P450 2C9 = Cytochrome P450 2C9 (Homo sapiens, UniProt P11712); test: Inhibition of CYP2C9 in human liver microsomes using tolbutamide as substrate preincubated for 5 mins followed by NADPH-generating system addition and measured after 20 mins by LC-MS/MS analysis
Chain of Cytochrome P450 2C9 (P11712 whole entry): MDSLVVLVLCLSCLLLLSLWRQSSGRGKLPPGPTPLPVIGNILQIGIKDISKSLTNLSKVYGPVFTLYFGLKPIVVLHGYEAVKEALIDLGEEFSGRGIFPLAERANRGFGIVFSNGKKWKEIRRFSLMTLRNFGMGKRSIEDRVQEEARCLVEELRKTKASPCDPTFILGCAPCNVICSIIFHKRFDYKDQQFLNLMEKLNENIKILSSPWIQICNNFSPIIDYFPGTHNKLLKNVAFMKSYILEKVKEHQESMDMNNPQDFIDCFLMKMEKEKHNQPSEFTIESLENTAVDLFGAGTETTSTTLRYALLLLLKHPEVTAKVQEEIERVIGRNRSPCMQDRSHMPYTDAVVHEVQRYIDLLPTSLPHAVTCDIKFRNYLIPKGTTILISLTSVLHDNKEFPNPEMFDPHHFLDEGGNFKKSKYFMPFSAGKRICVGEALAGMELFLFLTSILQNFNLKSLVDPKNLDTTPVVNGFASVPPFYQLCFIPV

PANC-1 [2] = test: Effect on myosin 2A expression in human PANC1 cells up to 400 nM by Western blot analysis; assay type: functional, cell-based
PANC-1 [3] = test: Cytotoxicity against human PANC1 cells assessed as reduction in cell viability at 0.1 to 1 uM measured after 18 hrs by MTS assay; assay type: cell-based; conditions: panc-1, 18 h
PANC-1 [4] = test: Effect on VEGFR2 expression in MYOF-knockout human PANC1 cells up to 400 nM by Western blot analysis; assay type: functional, cell-based
Capan-2 = test: Antimigratory activity against human Capan2 cells measured after 36 hrs in presence of mitomycin C using crystal violet staining by inverted microscopy-based transwell assay; assay type: functional, cell-based
Myoferlin [5] = biological target: T1, Myoferlin (Homo sapiens, UniProt Q9NZM1); test: Inhibition of MYOF in human PANC1 cells assessed as reduction in phospho-VEGFR2 level by Western blot analysis; assay type: cell-based
T1 sequence (Q9NZM1 whole entry): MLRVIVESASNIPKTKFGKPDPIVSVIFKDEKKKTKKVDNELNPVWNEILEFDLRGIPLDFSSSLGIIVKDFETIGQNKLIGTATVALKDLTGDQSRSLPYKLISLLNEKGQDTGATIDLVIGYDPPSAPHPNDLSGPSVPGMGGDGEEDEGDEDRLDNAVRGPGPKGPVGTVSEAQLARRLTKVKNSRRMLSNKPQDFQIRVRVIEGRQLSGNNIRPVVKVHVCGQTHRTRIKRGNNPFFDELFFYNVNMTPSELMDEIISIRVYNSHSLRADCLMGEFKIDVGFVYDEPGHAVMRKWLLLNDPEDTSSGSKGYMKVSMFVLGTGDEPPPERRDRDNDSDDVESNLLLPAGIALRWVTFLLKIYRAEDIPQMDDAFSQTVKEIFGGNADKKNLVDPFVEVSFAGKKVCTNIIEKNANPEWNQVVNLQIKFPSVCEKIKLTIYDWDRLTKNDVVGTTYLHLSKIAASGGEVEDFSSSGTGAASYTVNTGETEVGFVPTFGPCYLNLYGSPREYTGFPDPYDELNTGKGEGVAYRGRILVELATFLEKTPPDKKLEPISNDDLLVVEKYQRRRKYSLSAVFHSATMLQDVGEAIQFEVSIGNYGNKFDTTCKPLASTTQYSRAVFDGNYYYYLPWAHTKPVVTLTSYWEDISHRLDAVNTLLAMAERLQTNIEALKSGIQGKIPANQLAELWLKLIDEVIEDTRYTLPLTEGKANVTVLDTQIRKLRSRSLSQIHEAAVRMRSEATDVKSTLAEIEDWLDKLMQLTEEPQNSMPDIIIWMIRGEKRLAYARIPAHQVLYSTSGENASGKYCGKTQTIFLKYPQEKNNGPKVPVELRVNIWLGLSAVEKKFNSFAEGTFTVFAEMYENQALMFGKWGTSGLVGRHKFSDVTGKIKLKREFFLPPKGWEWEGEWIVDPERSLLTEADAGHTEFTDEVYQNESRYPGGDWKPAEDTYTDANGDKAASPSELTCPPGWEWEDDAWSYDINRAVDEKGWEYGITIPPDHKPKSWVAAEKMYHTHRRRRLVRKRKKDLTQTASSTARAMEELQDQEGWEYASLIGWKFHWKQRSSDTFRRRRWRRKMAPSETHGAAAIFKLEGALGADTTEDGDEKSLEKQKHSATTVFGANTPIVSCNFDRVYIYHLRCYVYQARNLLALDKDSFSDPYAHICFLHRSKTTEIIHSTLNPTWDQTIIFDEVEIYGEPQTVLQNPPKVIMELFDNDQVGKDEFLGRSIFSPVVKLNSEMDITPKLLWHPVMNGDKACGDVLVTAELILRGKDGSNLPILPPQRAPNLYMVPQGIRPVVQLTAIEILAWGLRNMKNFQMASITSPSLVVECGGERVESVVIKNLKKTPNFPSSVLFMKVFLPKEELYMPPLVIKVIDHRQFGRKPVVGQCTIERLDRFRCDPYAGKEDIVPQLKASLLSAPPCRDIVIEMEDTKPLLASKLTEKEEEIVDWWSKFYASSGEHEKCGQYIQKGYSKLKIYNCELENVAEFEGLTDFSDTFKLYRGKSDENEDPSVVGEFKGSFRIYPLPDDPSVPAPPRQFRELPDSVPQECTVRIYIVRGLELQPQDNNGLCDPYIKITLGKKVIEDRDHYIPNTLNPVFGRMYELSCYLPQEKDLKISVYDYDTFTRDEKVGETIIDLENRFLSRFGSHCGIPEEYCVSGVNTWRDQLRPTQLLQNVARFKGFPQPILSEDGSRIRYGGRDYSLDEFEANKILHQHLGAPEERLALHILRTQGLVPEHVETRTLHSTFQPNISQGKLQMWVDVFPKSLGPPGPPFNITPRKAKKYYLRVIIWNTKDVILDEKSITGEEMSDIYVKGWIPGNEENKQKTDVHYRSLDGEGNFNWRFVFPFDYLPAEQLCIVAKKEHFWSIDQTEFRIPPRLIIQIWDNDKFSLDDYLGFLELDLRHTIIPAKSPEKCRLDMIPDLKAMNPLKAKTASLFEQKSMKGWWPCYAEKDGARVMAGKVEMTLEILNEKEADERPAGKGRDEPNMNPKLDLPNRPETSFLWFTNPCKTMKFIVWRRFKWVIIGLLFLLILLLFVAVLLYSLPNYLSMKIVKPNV

[6] = Toxicity in Balb/c nude mouse xenografted with PANC1 cells assessed as pathological changes in kidney at 25 to 50 mg/kg/day, ip by H and E staining-based microscopic analysis; assay type: organism-based; conditions: in vivo
PANC-1 [7] = test: Effect on MMP1 secretion in MYOF-knockout human PANC1 cells up to 400 nM by Western blot analysis; assay type: functional, cell-based
PANC-1 [8] = test: Antimetastatic activity against human PANC1 cells harboring luciferase reporter gene xenografted in Balb/c nude mouse assessed as mouse survival at 25 mg/kg/day, ip (reference value: 25%); assay type: functional; conditions: PANC-1, ip
Myoferlin [9] = biological target: T1, Myoferlin; test: Inhibition of MYOF in human PANC1 cells assessed as reduction in VEGFR2 level by Western blot analysis; assay type: cell-based
Myoferlin [10] = biological target: T1, Myoferlin; test: Inhibition of MYOF in human PANC1 cells assessed as reversal of epithelial-mesenchymal transition by measuring down regulation of fibronectin expression up to 400 nM by Western blot analysis; assay type: cell-based
Myoferlin [11] = biological target: T1, Myoferlin; test: Binding affinity to recombinant human GST-tagged MYOF C2 domain (3445 to 3912 residues) expressed in Escherichia coli BL21 (DE3) at 145 uM by STD-NMR analysis
Myoferlin [12] = biological target: T1, Myoferlin; test: Inhibition of MYOF in human PANC1 cells assessed as reduction in MMP2 secretion measured after 24 hrs by SDS-PAGE analysis; assay type: cell-based
MIA PaCa-2 = test: Cytotoxicity against human MIAPaCa2 cells assessed as reduction in cell viability measured after 48 hrs by MTS assay; assay type: cell-based; conditions: MIA PaCa-2, 48 h
Myoferlin [13] = biological target: T1, Myoferlin; test: Inhibition of MYOF in human PANC1 cells assessed as reduction in MMP1 secretion measured after 24 hrs by SDS-PAGE analysis; assay type: cell-based
[14] = biological target: Epidermal growth factor receptor (Homo sapiens) (UniProt P00533); test: Effect on EGF-stimulated EGFR phosphorylation in MYOF-knockout human PANC1 cells at 400 nM by Western blot analysis
Chain of Epidermal growth factor receptor (Homo sapiens) (P00533 whole entry, the tested form may be a part): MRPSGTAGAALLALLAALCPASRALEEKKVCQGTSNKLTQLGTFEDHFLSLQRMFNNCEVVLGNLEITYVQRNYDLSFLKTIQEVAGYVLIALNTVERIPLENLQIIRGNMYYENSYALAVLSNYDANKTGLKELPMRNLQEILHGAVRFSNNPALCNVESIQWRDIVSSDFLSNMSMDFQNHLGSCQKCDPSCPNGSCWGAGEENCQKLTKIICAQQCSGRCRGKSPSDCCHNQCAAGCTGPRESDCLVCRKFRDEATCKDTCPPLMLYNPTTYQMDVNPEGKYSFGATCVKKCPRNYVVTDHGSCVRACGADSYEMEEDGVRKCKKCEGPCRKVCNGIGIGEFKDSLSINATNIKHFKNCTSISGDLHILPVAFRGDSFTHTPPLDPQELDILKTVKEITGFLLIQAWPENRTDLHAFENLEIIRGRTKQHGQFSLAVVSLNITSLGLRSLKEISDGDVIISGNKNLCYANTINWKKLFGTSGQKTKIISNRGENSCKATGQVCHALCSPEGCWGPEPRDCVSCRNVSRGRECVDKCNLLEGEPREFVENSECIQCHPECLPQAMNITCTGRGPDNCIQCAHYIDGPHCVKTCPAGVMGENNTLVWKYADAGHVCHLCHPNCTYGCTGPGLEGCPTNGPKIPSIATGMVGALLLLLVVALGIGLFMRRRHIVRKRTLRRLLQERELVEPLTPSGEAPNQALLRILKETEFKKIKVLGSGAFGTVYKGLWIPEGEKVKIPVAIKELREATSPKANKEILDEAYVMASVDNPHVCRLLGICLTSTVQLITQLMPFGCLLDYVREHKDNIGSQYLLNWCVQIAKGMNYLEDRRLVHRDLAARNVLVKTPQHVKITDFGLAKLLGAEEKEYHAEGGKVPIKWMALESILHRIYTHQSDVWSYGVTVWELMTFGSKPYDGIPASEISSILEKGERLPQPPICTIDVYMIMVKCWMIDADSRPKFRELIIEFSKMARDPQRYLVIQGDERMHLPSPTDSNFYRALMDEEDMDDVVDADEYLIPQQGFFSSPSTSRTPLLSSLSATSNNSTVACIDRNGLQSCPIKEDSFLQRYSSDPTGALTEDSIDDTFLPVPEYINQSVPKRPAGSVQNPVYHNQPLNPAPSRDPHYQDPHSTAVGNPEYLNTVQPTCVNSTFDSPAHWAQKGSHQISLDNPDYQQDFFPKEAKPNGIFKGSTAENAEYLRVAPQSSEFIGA

Myoferlin [15] = biological target: T1, Myoferlin; test: Reversible binding affinity to recombinant human GST-tagged MYOF C2 domain (3445 to 3912 residues) expressed in Escherichia coli BL21 (DE3) by surface plasmon resonance analysis
PANC-1 [16] = test: Effect on dynein expression in human PANC1 cells up to 400 nM by Western blot analysis; assay type: functional, cell-based
Myoferlin [17] = biological target: T1, Myoferlin; test: Inhibition of MYOF in human PANC1 cells assessed as reversal of epithelial-mesenchymal transition by measuring up regulation of E-cadherin expression up to 400 nM by Western blot analysis; assay type: cell-based
Cytochrome P450 2D6 = Cytochrome P450 2D6 (Homo sapiens, UniProt P10635); test: Inhibition of CYP2D6 in human liver microsomes using tolbutamide as substrate preincubated for 5 mins followed by NADPH-generating system addition and measured after 20 mins by LC-MS/MS analysis
Chain of Cytochrome P450 2D6 (P10635 whole entry): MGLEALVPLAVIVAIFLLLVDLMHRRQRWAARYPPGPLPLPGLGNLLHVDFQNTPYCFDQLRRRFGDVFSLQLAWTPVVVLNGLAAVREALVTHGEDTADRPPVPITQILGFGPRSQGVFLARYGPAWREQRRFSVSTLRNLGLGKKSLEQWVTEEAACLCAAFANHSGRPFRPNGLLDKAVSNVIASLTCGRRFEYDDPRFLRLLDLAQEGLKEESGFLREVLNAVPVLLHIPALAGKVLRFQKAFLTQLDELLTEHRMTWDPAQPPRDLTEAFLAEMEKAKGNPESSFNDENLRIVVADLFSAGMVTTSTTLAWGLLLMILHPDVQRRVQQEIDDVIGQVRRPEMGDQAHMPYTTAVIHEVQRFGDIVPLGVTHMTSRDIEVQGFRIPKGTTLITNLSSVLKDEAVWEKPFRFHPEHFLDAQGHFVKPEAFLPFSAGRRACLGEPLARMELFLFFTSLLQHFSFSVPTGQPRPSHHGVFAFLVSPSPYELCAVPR

Myoferlin [18] = biological target: T1, Myoferlin; test: Inhibition of MYOF in human PANC1 cells assessed as increase in EGF-stimulated EGFR phosphorylation by Western blot analysis; assay type: cell-based
Cytochrome P450 2E1 = Cytochrome P450 2E1 (Homo sapiens, UniProt P05181); test: Inhibition of CYP2E1 in human liver microsomes using chlorzoxazone as substrate preincubated for 5 mins followed by NADPH-generating system addition and measured after 20 mins by LC-MS/MS analysis
PANC-1 [19] = test: Effect on Twist1 expression in human PANC1 cells up to 400 nM by Western blot analysis; assay type: functional, cell-based
Cytochrome P450 2B6 = biological target: T2, Cytochrome P450 2B6 (Homo sapiens, UniProt P20813); test: Inhibition of CYP2B6 in human liver microsomes using bupropion as substrate preincubated for 5 mins followed by NADPH-generating system addition and measured after 20 mins by LC-MS/MS analysis
T2 sequence (P20813 whole entry): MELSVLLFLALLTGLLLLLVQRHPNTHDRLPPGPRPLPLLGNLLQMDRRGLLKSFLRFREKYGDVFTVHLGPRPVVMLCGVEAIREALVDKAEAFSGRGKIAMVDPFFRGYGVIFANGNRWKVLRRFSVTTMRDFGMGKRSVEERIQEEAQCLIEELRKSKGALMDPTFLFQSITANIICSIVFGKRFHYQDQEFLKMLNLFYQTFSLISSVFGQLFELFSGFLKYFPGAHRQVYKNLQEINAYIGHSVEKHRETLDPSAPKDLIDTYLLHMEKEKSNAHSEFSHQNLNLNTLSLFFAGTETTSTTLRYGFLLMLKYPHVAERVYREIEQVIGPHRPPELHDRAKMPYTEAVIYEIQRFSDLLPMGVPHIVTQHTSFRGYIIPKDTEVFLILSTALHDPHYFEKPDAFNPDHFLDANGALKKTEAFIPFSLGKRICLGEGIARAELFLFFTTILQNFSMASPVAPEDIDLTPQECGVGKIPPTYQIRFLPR

PANC-1 [20] = test: Antiinvasive activity against human PANC1 cells measured after 18 hrs in presence of mitomycin C using crystal violet staining by inverted microscopy-based matrigel coated transwell assay; assay type: functional, cell-based; conditions: PANC-1, 18 h
PANC-1 [21] = test: Effect on EGFR expression in MYOF-knockout human PANC1 cells up to 400 nM by Western blot analysis; assay type: functional, cell-based
Cytochrome P450 3A4 = Cytochrome P450 3A4 (Homo sapiens, UniProt P08684); test: Inhibition of CYP3A4 in human liver microsomes using midazolam as substrate preincubated for 5 mins followed by NADPH-generating system addition and measured after 20 mins by LC-MS/MS analysis
Chain of Cytochrome P450 3A4 (P08684 whole entry): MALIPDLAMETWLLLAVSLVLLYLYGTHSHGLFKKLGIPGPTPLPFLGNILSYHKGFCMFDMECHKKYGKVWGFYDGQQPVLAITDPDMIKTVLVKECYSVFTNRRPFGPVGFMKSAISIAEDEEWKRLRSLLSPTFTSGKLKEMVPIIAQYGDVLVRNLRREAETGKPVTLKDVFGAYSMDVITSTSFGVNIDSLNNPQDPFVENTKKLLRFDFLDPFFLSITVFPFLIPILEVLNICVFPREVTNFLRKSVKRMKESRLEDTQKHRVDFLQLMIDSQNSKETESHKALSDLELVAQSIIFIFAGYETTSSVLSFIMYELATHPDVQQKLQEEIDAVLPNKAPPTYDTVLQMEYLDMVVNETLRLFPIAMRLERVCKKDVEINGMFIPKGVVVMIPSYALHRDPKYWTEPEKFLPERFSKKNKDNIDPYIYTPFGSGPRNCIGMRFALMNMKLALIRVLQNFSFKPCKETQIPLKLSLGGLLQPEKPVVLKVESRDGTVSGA

PANC-1 [22] = test: Antimetastatic activity against human PANC1 cells harboring luciferase reporter gene xenografted in Balb/c nude mouse administered intraperitoneally once daily measured every 10 days by bioluminescence imaging analysis; assay type: functional, cell-based
PANC-1 [23] = test: Effect on MMP2 secretion in MYOF-knockout human PANC1 cells up to 400 nM by Western blot analysis; assay type: functional, cell-based

Q: With `CCc1nc(-c2ncc(OC)cn2)n(-c2cccc(C(=O)NCCCCc3ccccc3)c2)n1` as the molecule, how does the Activity [1] read?
A: Non-Toxic

Q: What about the pIC50 (MCF-10A) of the same molecule?
A: 4.56

Q: What about the pIC50 (Cytochrome P450 2C9) of the same molecule?
A: 4.69

Q: What about the Activity (PANC-1 [2]) of the same molecule?
A: inactive

Q: And the Activity (PANC-1 [3])?
A: Non-Toxic

Q: And the Activity (PANC-1 [4])?
A: inactive

Q: And the Activity (Capan-2)?
A: Dose-dependent effect

Q: What about the inhibition (Myoferlin [5]) of the same molecule?
A: Dose-dependent effect

Q: What about the Activity [6] of the same molecule?
A: Non-Toxic

Q: What about the Activity (PANC-1 [7]) of the same molecule?
A: inactive

Q: And the survival at 25 mg/kg/day (PANC-1 [8])?
A: 75%

Q: What about the inhibition (Myoferlin [9]) of the same molecule?
A: Dose-dependent effect

Q: What about the inhibition (Myoferlin [10]) of the same molecule?
A: Dose-dependent effect

Q: And the Activity (Myoferlin [11])?
A: Active

Q: What about the inhibition (Myoferlin [12]) of the same molecule?
A: Dose-dependent effect

Q: What about the pIC50 (MIA PaCa-2) of the same molecule?
A: 5.81

Q: And the inhibition (Myoferlin [13])?
A: Dose-dependent effect

Q: And the Activity [14]?
A: inactive

Q: What about the Activity (Myoferlin [15]) of the same molecule?
A: Dose-dependent effect

Q: What about the pKd (Myoferlin [15]) of the same molecule?
A: 7.03

Q: What about the Activity (PANC-1 [16]) of the same molecule?
A: inactive

Q: What about the inhibition (Myoferlin [17]) of the same molecule?
A: Active

Q: And the pIC50 (Cytochrome P450 2D6)?
A: 4.30

Q: What about the inhibition (Myoferlin [18]) of the same molecule?
A: Dose-dependent effect

Q: What about the pIC50 (Cytochrome P450 2E1) of the same molecule?
A: < 4.30

Q: And the Activity (PANC-1 [19])?
A: inactive

Q: And the pIC50 (Cytochrome P450 2B6)?
A: < 4.30

Q: What about the pIC50 (PANC-1 [20]) of the same molecule?
A: 6.92

Q: What about the Activity (PANC-1 [21]) of the same molecule?
A: inactive

Q: And the pIC50 (Cytochrome P450 3A4)?
A: < 4.30

Q: What about the Activity (PANC-1 [22]) of the same molecule?
A: Dose-dependent effect

Q: What about the Activity (PANC-1 [23]) of the same molecule?
A: inactive
